Source: patent publication US10821115B2, “Compounds that inhibit Mcl-1 protein” (priority 2017, dated 2020)
Like-named read-outs stand apart in the source and are kept apart here.

Key:
[1] = target: recombinant human Mcl-1 (residues 171-327) / Bim interaction (Homo sapiens (Human), UniProt Q07820); assay: biochemical; format: binding; conditions: read-out: Mcl-1 HTRF IC50
[2] = system: human multiple myeloma cell line, OPM-2; assay: Cell viability assay (OPM-2 10 FBS), CellTiter-Glo; format: cell-based
In short: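 IC50 values come from 4-parameter logistic fits of luminescence signals reflecting cell viability. Treatment lasted 16 h at 37 °C in complete medium with 10% FBS, starting from 3000 cells/well.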

[3] = TR-FRET, Mcl-1(171-327) / biotin-Bim (51-76)
[4] = Homo sapiens, OPM-2, 16 h, read-out: OPM-2 10% FBS IC50 IP, OPM-2 cells, 10% FBS, 16 h, CellTiter-Glo
[5] = 0.1 nM Mcl-1(171-327), 0.05 nM biotin-Bim (51-76)

Sequence of recombinant human Mcl-1 (residues 171-327) / Bim interaction (Q07820 171-327): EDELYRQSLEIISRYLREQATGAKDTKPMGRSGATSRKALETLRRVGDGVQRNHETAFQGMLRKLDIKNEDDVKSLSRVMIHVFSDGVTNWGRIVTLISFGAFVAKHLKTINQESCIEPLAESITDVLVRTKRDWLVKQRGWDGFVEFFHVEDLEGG

SMILES	IC50 [1, 3]	IC50 [2, 4]	IC50 [1, 5]	IC50 ([2]; read-out: OPM-2 10% FBS IC50 IP, OPM-2 cells, 10% FBS, 16 h incubation)	IC50 ([2]; Homo sapiens, OPM-2, 16 h, read-out: OPM-2 10% FBS IC50 IP, OPM-2 cells, 10% FBS, 16 h incubation)
COC(=O)c1nc(C[C@]2(OC)/C=C/C[C@H](C)[C@@H](C)S(=O)(=O)NC(=O)c3ccc4c(c3)N(C[C@@H]3CC[C@H]32)C[C@@]2(CCCc3cc(Cl)ccc32)CO4)oc1C [Example 100583, methyl 2-(((1S,3′R,6′R,7′S,8′E,11′S,12′R)-6-chloro-7′-methoxy-11′,12′-dimethyl-13′,13′-dioxido-15′-oxo-3,4-dihydro-2H-spiro[naphthalene-1,22′-[20]oxa[13]thia[1,14]diazatetracyclo [14.7.2.0~3,6~.0~19,24~]pentacosa[8,16,18,24]tetraen]-7′-yl)methyl)-5-methyl-1,3-oxazole-4-carboxylate]	0.124 nM	411 nM	–	–	–
C[C@@H]1[C@@H](C)C/C=C/[C@@](O)(CC2=NC(C)(C)CO2)[C@@H]2CC[C@H]2CN2C[C@@]3(CCCc4cc(Cl)ccc43)COc3ccc(cc32)C(=O)NS1(=O)=O [Example 100346, (1S,3′R,6′R,7′S,8′E,11′S,12′R)-6-chloro-7′-((4,4-dimethyl-4,5-dihydro-1,3-oxazol-2-yl)methyl)-7′-hydroxy-11′,12′-dimethyl-3,4-dihydro-2H,15′H-spiro[naphthalene-1,22′-[20]oxa[13]thia[1,14]diazatetracyclo [14.7.2.0~3,6~.0~19,24~]pentacosa[8,16,18,24]tetraen]-15′-one 13′,13′-dioxide]	0.735 nM	248 nM	–	–	–
CO[C@@]1(c2nccn2C)/C=C/C[C@H](C)[C@@H](C)S(=O)(=O)NC(=O)c2ccc3c(c2)N(C[C@@H]2CC[C@H]21)C[C@@]1(CCCc2cc(Cl)ccc21)CO3 (single isomer, unassigned) [Example 100556]	0.113 nM	734 nM	–	–	–
CO[C@@]1(CC(=O)N(C)C2CCC2)/C=C/C[C@H](C)[C@@H](C)S(=O)(=O)NC(=O)c2ccc3c(c2)N(C[C@@H]2CC[C@H]21)C[C@@]1(CCCc2cc(Cl)ccc21)CO3 [Example 100450, 2-((1S,3′R,6′R,7′S,8′E,11′S,12′R)-6-chloro-7′-methoxy-11′,12′-dimethyl-13′,13′-dioxido-15′-oxo-3,4-dihydro-2H-spiro[naphthalene-1,22′-[20]oxa[13]thia[1,14]diazatetracyclo [14.7.2.0~3,6~.0~19,24~]pentacosa[8,16,18,24]tetraen]-7′-yl)-N-cyclobutyl-N-methylacetamide]	0.336 nM	1910 nM	–	–	–
C[C@@H]1[C@@H](C)C/C=C/[C@@](O)(c2cncc(-c3ccccc3)c2)[C@@H]2CC[C@H]2CN2C[C@@]3(CCCc4cc(Cl)ccc43)COc3ccc(cc32)C(=O)NS1(=O)=O (single isomer, unassigned) [Example 100534]	0.799 nM	542 nM	–	–	–
CO[C@]1(CN2CC[C@H]3CCCC[C@@H]3C2)/C=C/C[C@H](C)[C@@H](C)S(=O)(=O)NC(=O)c2ccc3c(c2)N(C[C@@H]2CC[C@H]21)C[C@@]1(CCCc2cc(Cl)ccc21)CO3 [Example 86]	–	–	3.9 nM	7950 nM	–
COCC(COC)N1CCN(C[C@]2(OC)/C=C/C[C@H](C)[C@@H](COC)S(=O)(=O)NC(=O)c3ccc4c(c3)N(C[C@@H]3CC[C@H]32)C[C@@]2(CCCc3cc(Cl)ccc32)CO4)CC1 [Example 172, (1S,3′R,6′R,7′S,8′E,11′S,12′S)-6-chloro-7′-methoxy-7′-((4-(2-methoxy-1-(methoxymethyl)ethyl)-1-piperazinyl)methyl)-12′-(methoxymethyl)-11′-methyl-3,4-dihydro-2H,15′H-spiro[naphthalene-1,22′-[20]oxa[13]thia[1,14]diazatetracyclo [14.7.2.0~3,6~.0~19,24~]pentacosa[8,16,18,24]tetraen]-15′-one 13′,13′-dioxide]	–	–	0.137 nM	–	55 nM
